Data reported in US8076325B2, “1,2,4,5-tetrahydro-3H-benzazepine compounds, a process for their preparation and pharmaceutical compositions containing them” (Les Laboratoires Servier, priority 2007, dated 2011).
Counter-ions that a name gives are not always drawn.

The molecules below were run on spontaneously beating right atrium (assay: Effect of compounds on the spontaneous beating rate of the right atrium in the rat). Conditions: Rattus norvegicus, 0.25 h.
Procedure: Male WISTAR rats weighing from 325 to 375 g are anaesthetised by ip injection of pentobarbital sodium (30 mg/kg). The heart is rapidly excised and placed in a physiological solution at 4° C. which contains (in mM): NaCl 120.3, KCl 4.8, CaCl2 2.5, KH2PO4 1.0, MgSO4 1.3, NaHCO3 24.2, glucose 11.1, Ca-EDTA 0.016, and which is oxygenated (carbogene 95% O2+5% CO2), pH 7.4. The right atrium (RA), which beats spontaneously, is isolated, placed in a basin, thermostatically controlled at 35° C., containing 20 ml of physiological solution and connected to an isometric tension sensor (model IT-25, EMKA Technologies, Paris, France). The initial tension is set at 0.4 g. The spontaneous beating rate is measured by IOX software (EMKA Technologies, Paris, France). Preparations whose spontaneous beating rate is not between 200 and 300 beats per minute are excluded.
The compounds are dissolved daily at 10^−2M. The following dilutions are stored in ice over the duration of the experiment.
After stabilisation for 30 minutes, the compound under test is added to the medium in cumulative manner every 15 minutes (4 concentrations). The reductions in beating rate are expressed as a percentage relative to the initial rate. The concentration that reduces the initial beating rate by 30% (IC30) is calculated and expressed in terms of molarity (μM).

Molecule | IC30
COc1cc2c(cc1OC)CCN(C(=O)CCNCC1Cc3ccc(OC(=O)N(C)C)cc31)CC2 (stereo not shown) [Example 53, 8-{[[3-(7,8-Dimethoxy-1,2,4,5-tetrahydro-3H-3-benzazepin-3-yl)-3-oxopropyl]amino]methyl}bicyclo[4.2.0]octa-1,3,5-trien-3-yl dimethylcarbamate hydrochloride] | 1800 nM
CNC(=O)Oc1ccc2c(c1)C(CN(C)CCC(=O)N1CCc3cc(OC)c(OC)cc3CC1)C2 (stereo not shown) [Example 46, 8-{[[3-(7,8-Dimethoxy-1,2,4,5-tetrahydro-3H-3-benzazepin-3-yl)-3-oxopropyl](methyl)amino]methyl}bicyclo[4.2.0]octa-1,3,5-trien-3-yl methylcarbamate hydrochloride] | 500 nM
CCN(CC)C(=O)Oc1ccc2c(c1)CC2CN(C)CCC(=O)N1CCc2cc(OC)c(OC)cc2CC1 (stereo not shown) [Example 71, 7-{[[3-(7,8-Dimethoxy-1,2,4,5-tetrahydro-3H-3-benzazepin-3-yl)-3-oxopropyl](methyl)amino]methyl}bicyclo[4.2.0]octa-1,3,5-trien-3-yl diethylcarbamate hydrochloride] | 1800 nM
CNC(=O)Oc1ccc2c(c1)CC2CN(C)CCC(=O)N1CCc2cc(OC)c(OC)cc2CC1 (stereo not shown) [Example 44, 7-{[[3-(7,8-Dimethoxy-1,2,4,5-tetrahydro-3H-3-benzazepin-3-yl)-3-oxopropyl](methyl)amino]methyl}bicyclo[4.2.0]octa-1,3,5-trien-3-yl methylcarbamate hydrochloride] | 800 nM
COc1cc2c(cc1OC)CCN(C(=O)CCN(C)CC1Cc3ccc(OC(=O)N(C)C)cc31)CC2 (stereo not shown) [Example 50, 8-{[[3-(7,8-Dimethoxy-1,2,4,5-tetrahydro-3H-3-benzazepin-3-yl)-3-oxopropyl](methyl)amino]methyl}bicyclo[4.2.0]octa-1,3,5-trien-3-yl dimethylcarbamate hydrochloride] | 500 nM
COc1cc2c(cc1OC)CCN(C(=O)CCNCC1Cc3cc(OC(=O)N(C)C)ccc31)CC2 (stereo not shown) [Example 54, 7-{[[3-(7,8-Dimethoxy-1,2,4,5-tetrahydro-3H-3-benzazepin-3-yl)-3-oxopropyl]amino]methyl}bicyclo[4.2.0]octa-1,3,5-trien-3-yl dimethylcarbamate hydrochloride] | 800 nM
COc1cc2c(cc1OC)CCN(C(=O)CCN(C)CC1Cc3cc(OC(=O)N(C)C)ccc31)CC2 (stereo not shown) [Example 47, 7-{[[3-(7,8-Dimethoxy-1,2,4,5-tetrahydro-3H-3-benzazepin-3-yl)-3-oxopropyl](methyl)amino]methyl}bicyclo[4.2.0]octa-1,3,5-trien-3-yl dimethylcarbamate hydrochloride] | 600 nM
COc1cc2c(cc1OC)CCN(C(=O)CCN(C)CC1Cc3cc(OC(=O)N4CCCC4)ccc31)CC2 (stereo not shown) [Example 73, 7-{[[3-(7,8-Dimethoxy-1,2,4,5-tetrahydro-3H-3-benzazepin-3-yl)-3-oxopropyl](methyl)amino]methyl}bicyclo[4.2.0]octa-1,3,5-trien-3-yl 1-pyrrolidinecarboxylate hydrochloride] | 2400 nM

Same assay, conditions: Rattus norvegicus, 0.25 h; concentration that reduces the initial spontaneous beating rate by 30%; isolated right atrium of male WISTAR rats, 35° C., compound added cumulatively every 15 minutes (4 concentrations); read-out: IC30

Molecule | IC30
COc1cc2c(cc1OC)CCN(C(=O)CCN(CC1CCC1)C[C@H]1Cc3cc(OC)c(OC)cc31)CC2 [Example 29, N-(Cyclobutylmethyl)-N-{[(7S)-3,4-dimethoxybicyclo[4.2.0]octa-1,3,5-trien-7-yl]methyl}-3-(7,8-dimethoxy-1,2,4,5-tetrahydro-3H-3-benzazepin-3-yl)-3-oxopropan-1-amine fumarate] | 400 nM
COc1cc2c(cc1C)CC2CN(C)CCC(=O)N1CCc2cc(OC)c(OC)cc2CC1 (stereo not shown) [Example 76, 3-(7,8-Dimethoxy-1,2,4,5-tetrahydro-3H-3-benzazepin-3-yl)-N-{[4-methoxy-3-methyl-bicyclo[4.2.0]octa-1,3,5-trien-7-yl]methyl}-N-methyl-3-oxopropan-1-amine hydrochloride] | 1600 nM
COc1ccc2c(c1)CCN(C(=O)CCN(C)C[C@H]1Cc3cc(OC)c(OC)cc31)CC2 [Example 34, N-{[(7S)-3,4-Dimethoxybicyclo[4.2.0]octa-1,3,5-trien-7-yl]methyl}-3-(7-methoxy-1,2,4,5-tetrahydro-3H-3-benzazepin-3-yl)-N-methyl-3-oxopropan-1-amine hydrochloride] | 1300 nM
COc1cc2c(cc1OC)CCN(C(=O)CCN(CC1CC1)C[C@H]1Cc3cc(OC)c(OC)cc31)CC2 [Example 22, N-(Cyclopropylmethyl)-N-{[(7S)-3,4-dimethoxybicyclo[4.2.0]octa-1,3,5-trien-7-yl]methyl}-3-(7,8-dimethoxy-1,2,4,5-tetrahydro-3H-3-benzazepin-3-yl)-3-oxopropan-1-amine hydrochloride] | 800 nM
COc1cc2c(cc1OC)CCN(C(=O)CCNC[C@H]1Cc3cc(OC)c(OC)cc31)CC2 [Example 4, N-{[(7S)-3,4-Dimethoxybicyclo[4.2.0]octa-1,3,5-trien-7-yl]methyl}-3-(7,8-dimethoxy-1,2,4,5-tetrahydro-3H-3-benzazepin-3-yl)-3-oxopropan-1-amine hydrochloride] | 1400 nM
COc1cc2c(cc1OC)CCN(C(=O)CCN(CC1CCCC1)C[C@H]1Cc3cc(OC)c(OC)cc31)CC2 [Example 28, N-(Cyclopentylmethyl)-N-{[(7S)-3,4-dimethoxybicyclo[4.2.0]octa-1,3,5-trien-7-yl]methyl}-3-(7,8-dimethoxy-1,2,4,5-tetrahydro-3H-3-benzazepin-3-yl)-3-oxopropan-1-amine hydrochloride] | 1200 nM
COc1cc2c(cc1OC)CCN(C(=O)CCN(C[C@H]1Cc3cc(OC)c(OC)cc31)C1CCCC1)CC2 [Example 27, N-Cyclopentyl-N-{[(7S)-3,4-dimethoxybicyclo[4.2.0]octa-1,3,5-trien-7-yl]methyl}-3-(7,8-dimethoxy-1,2,4,5-tetrahydro-3H-3-benzazepin-3-yl)-3-oxopropan-1-amine fumarate] | 1200 nM
COc1cc2c(cc1OC)CCN(C(=O)CCN(C)CC1Cc3cc(OC)c(OC)cc3C1)CC2 [Example 7, N-[(5,6-Dimethoxy-2,3-dihydro-1H-inden-2-yl)methyl]-3-(7,8-dimethoxy-1,2,4,5-tetrahydro-3H-3-benzazepin-3-yl)-N-methyl-3-oxopropan-1-amine hydrochloride] | 1700 nM
COc1cc2c(cc1C)C(CN(C)CCC(=O)N1CCc3cc(OC)c(OC)cc3CC1)C2 (stereo not shown) [Example 74, 3-(7,8-Dimethoxy-1,2,4,5-tetrahydro-3H-3-benzazepin-3-yl)-N-{[3-methoxy-4-methyl-bicyclo[4.2.0]octa-1,3,5-trien-7-yl]methyl}-N-methyl-3-oxopropan-1-amine hydrochloride] | 1000 nM
COc1cc2c(cc1OC)CCN(C(=O)CCN(C)C[C@H]1Cc3cc(OC)c(OC)cc31)CC2 [Example 3a, N-{[(7S)-3,4-Dimethoxybicyclo[4.2.0]octa-1,3,5-trien-7-yl]methyl}-3-(7,8-dimethoxy-1,2,4,5-tetrahydro-3H-3-benzazepin-3-yl)-N-methyl-3-oxopropan-1-amine hydrochloride] | 1300 nM
CCOc1ccc2c(c1)CC2CNCCC(=O)N1CCc2cc(OC)c(OC)cc2CC1 (stereo not shown) [Example 14, 3-(7,8-Dimethoxy-1,2,4,5-tetrahydro-3H-3-benzazepin-3-yl)-N-[(3-ethoxybicyclo[4.2.0]octa-1,3,5-trien-7-yl)methyl]-3-oxopropan-1-amine hydrochloride] | 1000 nM
C=CCN(CCC(=O)N1CCc2cc(OC)c(OC)cc2CC1)C[C@H]1Cc2cc(OC)c(OC)cc21 [Example 23, N-Allyl-N-{[(7S)-3,4-dimethoxybicyclo[4.2.0]octa-1,3,5-trien-7-yl]methyl}-3-(7,8-dimethoxy-1,2,4,5-tetrahydro-3H-3-benzazepin-3-yl)-3-oxopropan-1-amine hydrochloride] | 1400 nM

Same assay, conditions: concentration that reduces the initial spontaneous beating rate by 30%; isolated right atrium of male WISTAR rats, 35° C., compound added cumulatively every 15 minutes (4 concentrations); read-out: IC30

Molecule | IC30
COc1cc2c(cc1OC)CCN(C(=O)CCN(C)CC1Cc3cc(OC(=O)N(C)C)ccc31)CC2.Cl (single isomer, unassigned; (-)) [Example 48, (−) enantiomer of 7-{[[3-(7,8-dimethoxy-1,2,4,5-tetrahydro-3H-3-benzazepin-3-yl)-3-oxopropyl](methyl)amino]methyl}bicyclo[4.2.0]octa-1,3,5-trien-3-yl dimethylcarbamate hydrochloride] | 500 nM
7-({[3-(7,8-Dimethoxy-1,2,4,5-tetrahydro-3H-3-benzazepin-3-yl)-3-oxopropyl](methyl)amino}methyl)bicyclo[4.2.0]octa-1,3,5-trien-3-yl hexahydrocyclopenta[c]pyrrole-2(1H)-carboxylate (cis compound) [Example 78] | 2000 nM
